This experiment deals with Bovine cardiac myofibrils. As to the kind of experiment: In vitro model of dose-dependent myofibril ATPase modulation (AC1.4, pyruvate kinase/lactate dehydrogenase-coupled ATPase assay at pCa25). Type of experiment: biochemical. The following applies: concentration at which ATPase activity was 1.4-fold higher than the bottom of the dose curve, mean of a minimum of two independent tests. In a few lines: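 We measure calcium-buffered ATPase activity of detergent-skinned bovine cardiac myofibrils at pH 6.80 and 22° C with 1 mM ATP, using a PK/LDH-coupled NADH readout at 340 nm. Values come from four-parameter dose-response fits, averaged over at least two independent runs.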
Compound `O=C(NCc1ccc(C(F)(F)F)cc1)[C@H]1CCCN1C(=O)[C@H]1CCCN(S(=O)(=O)N2CCC(F)(F)C2)C1` [Example 773, 1-(((3S)-1-((3,3-difluoro-1-pyrrolidinyl)sulfonyl)-3-piperidinyl)carbonyl)-N-(4-(trifluoromethyl)benzyl)-D-prolinamide] showed an AC1.4 of 8.21 µM.

For the compound `CS(=N)(=O)c1cccc(C(=O)N2[C@@H](C(=O)N[C@@H](c3cc(F)c(Cl)cc3F)C3CC3)C[C@H]3C[C@H]32)c1` (stereo partly drawn) [Example 752, (1R,3R,5R)—N—((R)-(4-chloro-2,5-difluorophenyl)(cyclopropyl)methyl)-2-(3-(S-methylsulfonimidoyl)benzoyl)-2-azabicyclo[3.1.0]hexane-3-carboxamide], the AC1.4 worked out at 7.417 µM.

The compound `CS(=O)(=O)c1cncc(C(=O)N2CCC[C@@H]2C(=O)N[C@@H](c2cc(F)c(Cl)cc2F)C2CC2)c1` [Example 362, N-((R)-(4-chloro-2,5-difluorophenyl)(cyclopropyl)methyl)-1-((5-(methylsulfonyl)-3-pyridinyl)carbonyl)-D-prolinamide] returned an AC1.4 of 1.0375 µM.

Compound `CCCCCOC1CN(S(=O)(=O)N2CCC[C@H](C(=O)N3CCC[C@@H]3C(=O)NCc3ccc(C(F)(F)F)cc3)C2)C1` [Example 536, 1-(((3S)-1-((3-(pentyloxy)-1-azetidinyl)sulfonyl)-3-piperidinyl)carbonyl)-N-(4-(trifluoromethyl)benzyl)-D-prolinamide] returned an AC1.4 of 2.696 µM.

`CS(=O)(=O)c1ccnc(C(=O)N2C[C@@H](F)C[C@@H]2C(=O)N[C@@H](c2cc(F)c(Cl)cc2F)C2CC2)c1` [Example 269, (4S)-N-((R)-(4-chloro-2,5-difluorophenyl)(cyclopropyl)methyl)-4-fluoro-1-((4-(methylsulfonyl)-2-pyridinyl)carbonyl)-D-prolinamide] displayed an AC1.4 of 0.6767 µM.

For `COc1cc(CNC(=O)[C@H]2CCCN2C(=O)[C@H]2CCCN(S(=O)(=O)N3CC(C#N)C3)C2)ccc1C` [Example 387, 1-(((3S)-1-((3-cyano-1-azetidinyl)sulfonyl)-3-piperidinyl)carbonyl)-N-(3-methoxy-4-methylbenzyl)-D-prolinamide], the AC1.4 was found to be 1.34 µM.

Compound `O=C(NCc1ccc(C(F)(F)F)cc1)[C@H]1CCCN1C(=O)[C@H]1CCCN(S(=O)(=O)N2CC(NC(=O)C(F)(F)F)C2)C1` [Example 489, 1-(((3S)-1-((3-((trifluoroacetyl)amino)-1-azetidinyl)sulfonyl)-3-piperidinyl)carbonyl)-N-(4-(trifluoromethyl)benzyl)-D-prolinamide] registered an AC1.4 of 2.2325 µM.

In turn, `N#CC1CN(S(=O)(=O)N2CCC[C@H](C(=O)N3CCC[C@@H]3C(=O)NCc3cc(F)cc(C(F)(F)F)c3)C2)C1` [Example 379, 1-(((3S)-1-((3-cyano-1-azetidinyl)sulfonyl)-3-piperidinyl)carbonyl)-N-(3-fluoro-5-(trifluoromethyl)benzyl)-D-prolinamide] yielded an AC1.4 of 1.237 µM.

Turning to `CC(C)(C(N)=O)c1cccc(C(=O)N2[C@@H](C(=O)N[C@@H](c3cc(F)c(Cl)cc3F)C3COC3)C[C@H]3C[C@H]32)c1` [Example 263, (1R,3R,5R)-2-(3-(1-amino-2-methyl-1-oxo-2-propanyl)benzoyl)-N-((R)-(4-chloro-2,5-difluorophenyl)(3-oxetanyl)methyl)-2-azabicyclo[3.1.0]hexane-3-carboxamide], the AC1.4 is 0.6526 µM.

Consider `CCc1ccnc(C(=O)N2[C@@H](C(=O)N[C@@H](c3cc(F)c(C(F)(F)F)cc3F)C3CC3)C[C@H]3C[C@H]32)c1` [Example 661, (1R,3R,5R)-N-((R)-cyclopropyl(2,5-difluoro-4-(trifluoromethyl)phenyl)methyl)-2-((4-ethyl-2-pyridinyl)carbonyl)-2-azabicyclo[3.1.0]hexane-3-carboxamide], for which the AC1.4 was 4.1595 µM.

(Values after patent US11780826B2 (Amgen Inc., priority 2017, dated 2023).)
